Structures can show the parent of a compound that is named as a salt. Where two headings read alike, the source gives them in different places.

Data set [1] concerns the target TYK2 protein (His-TVMV-TYK2 JH2 (575-869)) (Homo sapiens (Human), UniProt P29597). The data set is described as follows: Tyk2 JH2 enzymatic activity assay (HTRF, fluorescein-labeled kinase tracer). It is filed as binding. The following applies: 90 minutes at room temperature. Here is the method:
The assay system was incubated at room temperature for 90 minutes. The resulting HTRF (homogeneous time-resolved fluorescence) signal, i.e., the ratio of the fluorescence intensity of the fluorescein acceptor (520 nm) and the terbium donor (495 nm) at the emission wavelength, was then measured on an Envision plate reader, and based on this, the IC50 value was calculated.
A general note: In TR-FRET formats the signal depends on donor and acceptor labels being close together.

Data set [2] has as its system IFNα-stimulated phosphorylated STAT1. The experiment in a line: Assay of IFNα-stimulated phosphorylated STAT1 in hPBMC (flow cytometry, CD4+ T cells). Format: cell-based, Human. The following applies: IFN-α 1000 U/ml, pSTAT1 in CD4+ T cells. The procedure: Human peripheral blood mononuclear cells (hPBMC) were plated at a cell density of 1×10^5 cells/well and placed in a 37° C. incubator for 90 minutes. Different concentrations of compounds were then added to the cells, wherein the concentration of each compound started from […] and was serially diluted 5-fold to a total of 8 concentrations. Compounds and cells were incubated at 37° C. for 30 minutes. IFN-α (1000 U/ml) was used to stimulate hPBMC, and then flow cytometry was used to detect the level of phosphorylated STAT1 in CD4+ T cells to evaluate the inhibitory activity of compounds on the IFN-α pathway.
On the technique in general: Flow cytometry measures light scatter and fluorescence of single cells or particles in a stream.

The nature of data set [3]: Pharmacokinetics of the compound in Balb/c mice. It is filed as in vivo. The following applies: mouse, plasma, male Balb/c mice, fasted; for AUC: read-out: AUC (exposure). Here is the method: • Purpose of assay: To assay the pharmacokinetics of the compound in Balb/c mice • Assay materials: Male Balb/c mice, fasted
The pharmacokinetic profiles of compound 1 in rodents after intravenous injection and oral administration were assayed using standard protocols.
Acclimatization/quarantine of Balb/c mice was performed for at least 3 days after arrival at the facility. Upon completion of the acclimatization/quarantine, a veterinarian or designee examined the health status of the Balb/c mice to evaluate whether the animals were suitable for the assay study. All Balb/c mice were fasted overnight before administration and resumed feeding 4 hours after administration. In the assay, the candidate compound was formulated into a homogeneous solution and given to Balb/c mice via a single intravenous injection and oral administration. The intravenous vehicle was a clear solution of 80% polyethylene glycol 400/20% water and the oral vehicle was a homogeneous suspension of ethanol/vitamin E polyethylene glycol succinate/polyethylene glycol 300 (5/5/90). The animals were weighed before administration and the administered volume was calculated based on body weight. Whole blood samples were collected by means of jugular vein puncture within 24 hours. All blood samples were immediately transferred to labeled commercial centrifuge tubes containing K2-EDTA. After blood samples were collected, the blood samples were centrifuged at 3200 g for 10 minutes at 4° C. The supernatant plasma was aspirated, quickly placed on dry ice, and then stored at −60° C. or lower for LC-MS/MS analysis. The data of blood drug concentration-time were analyzed using the WinNonlin software package (Version 6.3 and above) using a non-compartmental model. Pharmacokinetic parameters were calculated, including (if data permitted), but not limited to, peak concentration (Cmax), time to peak (Tmax), elimination half-life (T 1/2), area under plasma concentration-time curve (AUC), mean retention time (MRT), bioavailability, etc.

TYK2 protein (His-TVMV-TYK2 JH2 (575-869)), sequence (P29597 575-869, species assumed): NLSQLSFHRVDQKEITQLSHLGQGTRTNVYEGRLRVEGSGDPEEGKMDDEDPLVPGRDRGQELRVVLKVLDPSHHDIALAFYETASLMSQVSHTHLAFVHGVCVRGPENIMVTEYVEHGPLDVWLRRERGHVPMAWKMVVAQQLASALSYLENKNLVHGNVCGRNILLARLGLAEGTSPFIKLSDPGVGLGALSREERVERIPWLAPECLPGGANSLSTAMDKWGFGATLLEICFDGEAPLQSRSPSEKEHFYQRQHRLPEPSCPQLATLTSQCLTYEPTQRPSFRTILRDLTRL

As usually defined, the IC50 is the concentration at which inhibition is half-maximal. Low readings indicate greater potency in that assay, high ones weaker potency in that assay. In the case of `[2H]C([2H])([2H])CC(=O)c1cnc(NC(=O)C2CC2)cc1Nc1nccc(-c2cnc(N=S(C)(C)=O)cn2)c1OC` [Compound 16], in data set [1], the IC50 turned out to be 0.08 nM.

For `[2H]C([2H])([2H])CC(=O)c1cnc(NC(=O)c2cn[nH]c2)cc1Nc1cccc(-c2cnc(N=S(C)(C)=O)cn2)c1OC` [Compound 28], the IC50 in data set [1] is 0.17 nM.

`[2H]C([2H])([2H])CC(=O)c1cnc(NC(=O)C2C3COCC32)cc1Nc1cccc(-c2cnc(N=S(C)(C)=O)cn2)c1OC` (centres unmarked) [Compound 31] had a 50% inhibitory concentration (IC50) in data set [1] of 0.34 nM.

As for `[2H]C([2H])([2H])CC(=O)c1cnc(NC(=O)C2CC2)cc1Nc1cccc(-c2cnc(N=S3(=O)CCCC3)cn2)c1OC` [Compound 7], it took 0.09 nM to reach half-maximal inhibition in data set [1] (IC50).

Regarding `[2H]C([2H])([2H])CC(=O)c1cnc(NC(=O)C2CC2)cc1Nc1cccc(-c2cnc(N=S(C)(C)=O)cn2)c1OC` [Compound 9], the results for the IC50 in data set [2] and in data set [1] were 0.5 nM and 0.07 nM, respectively.

Turning to `[2H]C([2H])([2H])NC(=O)c1cnc(NC(=O)C2CC2)cc1Nc1cccc(-c2cnc(N=S(C)(C)=O)cn2)c1OC` [Compound 3], the IC50 is 2.1 nM in data set [2] (Homo sapiens, CD4+ T) and 0.03 nM in data set [1].

Turning to `[2H]C([2H])([2H])CC(=O)c1cnc(NC(=O)C2CC2)cc1Nc1cccc(-c2cnc(N=S3(=O)CCC3)cn2)c1OC` [Compound 6], in data set [1], the midpoint of inhibition, the IC50, lay at 0.18 nM.

Consider `[2H]C([2H])([2H])CC(=O)c1cnc(Nc2cccc(C#N)n2)cc1Nc1cccc(-c2cnc(N=S(C)(C)=O)cn2)c1OC` [Compound 12], for which, in data set [1], it took 0.05 nM to reach half-maximal inhibition (IC50).

Compound `[2H]C([2H])([2H])CC(=O)c1cnc(NC(=O)C2CC2)cc1Nc1cccc(-c2cnc(N=S3(=O)CCOCC3)cn2)c1OC` [Compound 5] registered an IC50 in data set [1] of 0.07 nM.

For the compound `[2H]C([2H])([2H])CC(=O)c1cnc(Nc2cc3cc[nH]c3cn2)cc1Nc1cccc(-c2cnc(N=S(C)(C)=O)cn2)c1OC` [Compound 29], half-maximal inhibition in data set [1] (IC50) required 0.11 nM.

In turn, `[2H]C([2H])([2H])CC(=O)c1cnc(NC(=O)C23CC(C2)C3)cc1Nc1cccc(-c2cnc(N=S(C)(C)=O)cn2)c1OC` [Compound 30] showed an IC50 in data set [1] of 0.56 nM.

For `[2H]C([2H])([2H])CC(=O)c1cnc(NC(=O)C2CCC2)cc1Nc1cccc(-c2cnc(N=S(C)(C)=O)cn2)c1OC` [Compound 14], in data set [1], the IC50 came out at 0.25 nM.

On to `[2H]C([2H])([2H])CC(=O)c1cnc(Nc2ccn(C)c(=O)c2)cc1Nc1cccc(-c2cnc(N=S(C)(C)=O)cn2)c1OC` [Compound 35], for which the IC50 in data set [1] came out at 0.76 nM.

For orientation: AUC means the area under the concentration-time curve, a measure of exposure. What is called clearance is a measure of how efficiently the substance is removed, as volume per time. As a reminder, the Vd is a proportionality between amount in the body and measured concentration, not a real space. Broadly, the bioavailability is dose-corrected exposure relative to a reference, in per cent. `[2H]C([2H])([2H])CC(=O)c1cnc(NC(=O)C2CC2)cc1Nc1cccc(-c2cnc(N=S(C)(C)=O)cn2)c1OC` [Compound 1]: the IC50 in data set [2] was determined as 1.1 nM. Moreover, the exposure (AUC) in data set [3] (IV (1 mg/kg)) came out at 9.38 µM·h; in data set [3] (PO (10 mg/kg)) it was 47.2 µM·h. For the same compound, the clearance in data set [3] (IV (1 mg/kg), read-out: Cl (clearance rate)) is 3.39 mL/min/kg. In data set [3] (IV (1 mg/kg), read-out: T1/2 (half-life) (converted)), the half-life was 1.61 h. For the same compound, the Vd in data set [3] (IV (1 mg/kg), read-out: Vd (volume of distribution)) amounted to 0.45 L/kg. For the same compound, the Cmax in data set [3] (PO (10 mg/kg), read-out: Cmax (maximum concentration)) turned out to be 13.4 µM. In data set [3] (PO (10 mg/kg), read-out: F (bioavailability)), the bioavailability turned out to be 51.4%. The Tmax in data set [3] (PO (10 mg/kg), read-out: Tmax (time to peak concentration)) came out at 0.75 h.

For `[2H]C([2H])([2H])CC(=O)c1cnc(NC(=O)C2CC3CCC2C3)cc1Nc1cccc(-c2cnc(N=S(C)(C)=O)cn2)c1OC` (centres unmarked) [Compound 33], the midpoint of inhibition in data set [1], the IC50, lay at 0.3 nM.

`COc1c(Nc2cc(NC(=O)C3CC3)ncc2C(=O)C2CC2)cccc1-c1cnc(N=S(C)(C)=O)cn1` [Compound 19]: the midpoint of inhibition in data set [1], the IC50, lay at 0.12 nM.

In data set [1], `[2H]C([2H])([2H])CC(=O)c1cnc(Nc2ccccn2)cc1Nc1cccc(-c2cnc(N=S(C)(C)=O)cn2)c1OC` [Compound 10] had an IC50 of 0.06 nM.

As for `[2H]C([2H])([2H])NC(=O)c1nnc(NC(=O)C2CC2)cc1Nc1cccc(-c2cnc(N=S(C)(C)=O)cn2)c1OC` [Compound 2], the IC50 in data set [2] (Homo sapiens, CD4+ T) was found to be 0.2 nM; in data set [1], 0.06 nM.

`[2H]C([2H])([2H])CC(=O)c1cnc(Nc2ccc(F)cn2)cc1Nc1cccc(-c2cnc(N=S(C)(C)=O)cn2)c1OC` [Compound 11] had an IC50 in data set [1] of 0.11 nM.

`COc1c(Nc2cc(NC(=O)C3CC3)ncc2C(C)=O)cccc1-c1cnc(N=S(C)(C)=O)cn1` [Compound 18]: in data set [1], half-maximal inhibition (IC50) was put at 0.09 nM.

Turning to `[2H]C([2H])([2H])CC(=O)c1cnc(NC(=O)N2CCC2)cc1Nc1cccc(-c2cnc(N=S(C)(C)=O)cn2)c1OC` [Compound 20], the IC50 in data set [1] was 0.19 nM.

The compound `[2H]C([2H])([2H])CC(=O)c1cnc(NC(=O)C2CC2)cc1Nc1cc(C)cc(-c2cnc(N=S(C)(C)=O)cn2)c1OC` [Compound 21] registered an IC50 in data set [1] of 0.13 nM.

As for `CCC(=O)c1cnc(NC(=O)C2CC2)cc1Nc1cccc(-c2cnc(N=S(C)(C)=O)cn2)c1OC` [Compound 4], the 50% inhibitory concentration (IC50) amounted to 0.6 nM in data set [2] (Homo sapiens, CD4+ T) and 0.07 nM in data set [1].

`[2H]C([2H])([2H])CC(=O)c1cnc(NC(=O)C2CC2)cc1Nc1cccc(-c2cnc(N=S3(=O)CCN(C)CC3)cn2)c1OC` [Compound 8]: the IC50 in data set [2] (Homo sapiens, CD4+ T) was determined as 0.4 nM; in data set [1], 0.15 nM.

Turning to `[2H]C([2H])([2H])CC(=O)c1cnc(NC(=O)C2CC3(CCC3)C2)cc1Nc1cccc(-c2cnc(N=S(C)(C)=O)cn2)c1OC` [Compound 32], in data set [1], it took 0.31 nM to reach half-maximal inhibition (IC50).

Regarding `[2H]C([2H])([2H])CC(=O)c1cnc(Nc2cncc(C)n2)cc1Nc1cccc(-c2cnc(N=S(C)(C)=O)cn2)c1OC` [Compound 13], the IC50 in data set [1] came out at 0.12 nM.

The compound `[2H]C([2H])([2H])CC(=O)c1cnc(NC(=O)C2CC2)cc1Nc1cccc(-c2cnc(N=S(=O)(CC)CC)cn2)c1OC` [Compound 27] yielded an IC50 in data set [1] of 0.09 nM.

With `[2H]C([2H])([2H])CC(=O)c1cnc(NC(=O)NC2CC2)cc1Nc1cccc(-c2cnc(N=S(C)(C)=O)cn2)c1OC` [Compound 23], it took 0.13 nM to reach half-maximal inhibition in data set [1] (IC50).

In turn, `[2H]C([2H])([2H])CC(=O)c1cnc(NC(=O)C2CC2)cc1Nc1cc(OC)cc(-c2cnc(N=S(C)(C)=O)cn2)c1OC` [Compound 22 hydrochloride] yielded an IC50 in data set [1] of 0.14 nM.

In turn, `[2H]C([2H])([2H])CC(=O)c1cnc(NC(=O)C2CC2)cc1Nc1cc(F)cc(-c2cnc(N=S(C)(C)=O)cn2)c1OC` [Compound 15] returned an IC50 in data set [1] of 0.08 nM.

As for `COCC(=O)c1cnc(NC(=O)C2CC2)cc1Nc1cccc(-c2cnc(N=S(C)(C)=O)cn2)c1OC` [Compound 17], inhibition in data set [1] was half-maximal at 0.29 nM (IC50).
